Source: patent US3948925A, “Novel thiazole derivatives” (priority 1973, dated 1976)
Like-named read-outs stand apart in the source and are kept apart here.

What was measured:
Format in all cases: in vivo
Panagrellus silusae = assay: Nematocidal activity against Panagrellus silusae in aqueous suspension; settings: for mortality at 100 µg/mL / mortality at 1000 µg/mL: Panagrellus, 24 hours; for mortality at 100 µg/mL: 0.1 g/l; for mortality at 1000 µg/mL: 1 g/l; for nematocidal activity: in vivo
Procedure: (§1) About 2000 nematodes suspended in 0.5 ml of water were placed in a container of about 50 ml and 10 ml of an aqueous suspension of the test compound at a concentration of 1 or 0.1 g/liter were added thereto using 3 tests for each concentration. After homogenization of the aqueous media for 24 hours, a 1 ml sample was taken and the living and dead nematodes were counted with a Peter sheet.

[1] = system: Ditylenchus myceliophagus; assay: Nematocidal activity against Ditylenchus myceliophagus in aqueous suspension; settings: for mortality at 100 µg/mL / mortality at 1000 µg/mL: Ditylenchus myceliophagus, 24 hours; for mortality at 100 µg/mL: 0.1 g/l; for mortality at 1000 µg/mL: 1.0 g/l; for nematocidal activity: in vivo
Procedure: as §1

Blatella germanica = assay: Insecticidal activity against Blatella germanica, topical application to ventral thorax; settings: for insecticidal activity: in vivo
Procedure: 1 μl of an acetone solution of the test product was applied to the ventral thorax of the insects with 20 insects per dose and concentrations of 2500, 1250, 625 and 312,5 mg/liter. The number of living and dead insects 24 and 48 hours and 6 days after the treatment was determined and the results were reported in Table VI.

Tetranychus urticae = assay: Acaricidal activity, adulticide test on infested bean leaves; settings: read-out: % Mortality (adults); for mortality at 10 µg/mL: 10 mg/liter
Procedure: Bean leaves infested with 25 acarids per leaf and coated with glue about their edge were divided into 2 groups. The first group was sprayed with 2.5 ml of an aqueous solution of the test compound A for each leaf at concentrations of 50, 10 and 1 mg/liter. The second control group was untreated and the number of acarids living 48 hours after the spraying was determined to determine the percent of mortality.

[2] = system: Spodoptera exigua caterpillars; assay: Insecticidal activity against Spodoptera exigua caterpillars, topical application; settings: for mortality at 0.001 mg / mortality at 0.01 mg: Spodoptera exigua, topical; for mortality at 0.001 mg: 1 μg; for mortality at 0.01 mg: 10 μg
Procedure: (§2) This test was effected on Mamestra brassicae caterpillars in the last larvae stage with a body of 1.5 to 2.0 cm. 1 μl of an acetone solution of the test compound was applied topically to the dorsal thorax of each caterpillar using 10 caterpillars for each dose studied and the caterpillars were kept at 25°C.
(§3) The procedure of Test A was repeated with Spodoptera expigua and Chilo suppressalis caterpillars with compound A and the results are reported in Table II.

Sitophilus granarius = assay: Insecticidal activity against Sitophilus granarius, topical application to ventral thorax; settings: 20°C; for mortality at 0.1 mg: dose 100 (μg); for mortality at 1 mg: dose 1000 (μg)
Procedure: 0.2 μl of an acetone solution of the test product was applied to the ventral thorax of each insect at concentrations of 5000 and 500 ppm with 50 insects for each test. The insects were held at 20°C and the percent of mortality was determined 24 and 48 hours and 6 days after the treatment.

Drosophila melanogaster = assay: Insecticidal activity against Drosophila melanogaster, dried film in crystallizer (contact and vapor); settings: for Emax at 50 µg/mL / Emax at 500 µg/mL / Emax at 5000 µg/mL: Drosophila melanogaster, read-out: % Efficacy; for Emax at 50 µg/mL: 50 mg/liter; for Emax at 500 µg/mL: 500 mg/liter; for Emax at 5000 µg/mL: 5000 mg/liter
Procedure: 2 ml of an acetone solution of the test product at concentrations of 5000, 500 and 50 ppm were placed in the bottom of a crystallizer and were then allowed to dry for 1 hour under a laboratory atmosphere. Three tests were run for each concentration and 25 to 50 drosophiles were placed in the crystallizer together with a carrot ring which acted as nutrient for the insects. The crystallizers were closed with a Petri dish cover and they were stored at 20°C. The number of living and dead insects was determined after 1,2,4 and 24 hours and the results for compound A are reported in Table IV.

[3] = system: Mamestra oleracea caterpillars; assay: Insecticidal activity against Mamestra oleracea caterpillars, topical application; settings: for mortality at 0.001 mg / mortality at 0.01 mg: Mamestra, topical; for mortality at 0.001 mg: 1 μg; for mortality at 0.01 mg: 10 μg
[4] = system: Chilo suppressalis caterpillars; assay: Insecticidal activity against Chilo suppressalis caterpillars, topical application; settings: for mortality at 0.001 mg / mortality at 0.01 mg: Chilo suppressalis, topical; for mortality at 0.001 mg: 1 μg; for mortality at 0.01 mg: 10 μg
Procedure: as §2, §3

[5] = system: Mamestra brassicae caterpillars; assay: Insecticidal activity against Mamestra brassicae caterpillars, topical application; settings: 10 μg per caterpillar; for mortality at 0.01 mg: Mamestra brassicae, topical, read-out: percent of mortality
Procedure: as §2

Tetranychus urticae eggs = assay: Acaricidal activity, ovicide test on egg-infested bean leaves; settings: 216 h, 9 days after treatment
Procedure: (§4) Bean leaves infested with 10 Tetranychus urticae females per leaf and coated with glue about their periphery were used in this test and the females were left to lay eggs for 24 hours and were then removed from the leaves which were egg infested and divided into 2 groups. The first group was sprayed with 0.5 ml of an aqueous solution of compound A for each leaf at concentrations of 50 or 10 mg per liter and the second group was untreated to act as controls. The number of living eggs 9 days after the treatment was determined and the percent of egg mortality was determined and reported in Table IX.

Ceratitis capitata = assay: Insecticidal activity against Ceratitis capitata flies, topical application; settings: for mortality at 100 µg/mL / mortality at 1000 µg/mL: Ceratitis capitata; for mortality at 100 µg/mL: topical; for mortality at 1000 µg/mL: 1000 mg per liter, 1 μl topical
Procedure: This test was effected topically with acetone solutions of 1000 or 100 mg of compound A per liter and 1 μl of the solution was applied to the dorsal thorax of Ceratitis capitata flies aged 25 days (± 0.5) using 50 insects for each concentration. The number of flies still living and dead was determined after 2 and 24 hours to determine the percent of mortality.

[6] = system: Tetranychus urticae larvae; assay: Acaricidal activity, larvicide test on bean leaves; settings: 216 h, 9 days after treatment
Procedure: as §4
This test was similar to the ovicide test but the readings were effected 9 days after the treatment to allow time for the insects to evolve.

## CCOC(=O)Cc1csc(OP(=S)(OCC)OCC)n1 [Compound B, 4-ethoxycarbonylmethyl-2-(diethoxythiophosphoryloxy)-thiazole]
Panagrellus silusae
  mortality at 100 µg/mL: 100%
  mortality at 1000 µg/mL: 100%
  nematocidal activity: good nematocidal activity
[1]
  mortality at 100 µg/mL: 55.7%
  mortality at 1000 µg/mL: 100%
  nematocidal activity: good nematocidal activity
Blatella germanica; 625 mg/liter, 24 hr
  % mortality: 100%
Blatella germanica; 625 mg/liter, 48 hr
  % mortality: 100%
Blatella germanica; 625 mg/liter, 6 days
  % mortality: 100%
Blatella germanica; 1250 mg/liter, 24 hr
  % mortality: 100%
Blatella germanica; 1250 mg/liter, 48 hr
  % mortality: 100%
Blatella germanica; 1250 mg/liter, 6 days
  % mortality: 100%
Blatella germanica; 312,5 mg/liter, 24 hr
  % mortality: 90%
Blatella germanica; 312,5 mg/liter, 48 hr
  % mortality: 90%
Blatella germanica; 312,5 mg/liter, 6 days
  % mortality: 90%
Blatella germanica
  insecticidal activity: good insecticidal activity
Tetranychus urticae; 1 mg/liter, 48 hours
  mortality at 1 µg/mL: 20%
Tetranychus urticae; 48 hours
  mortality at 10 µg/mL: 96%
Tetranychus urticae; 48 h
  mortality at 50 µg/mL: 100%

## CCOC(=O)c1csc(OP(=S)(OCC)OCC)n1 [Compound A, 4-ethoxycarbonyl-2-(diethoxythiophosphoryloxy)-thiazole]
[2]; 24 hr
  mortality at 0.001 mg: 90%
  mortality at 0.01 mg: 100%
[2]; 48 hr
  mortality at 0.001 mg: 90%
  mortality at 0.01 mg: 100%
[2]; in vivo
  insecticidal activity: good insecticidal activity
Panagrellus silusae
  mortality at 100 µg/mL: 86.5%
  mortality at 1000 µg/mL: 100%
  nematocidal activity: good nematocidal activity
[1]
  mortality at 100 µg/mL: 88.4%
  mortality at 1000 µg/mL: 100%
  nematocidal activity: good nematocidal activity
Blatella germanica; 625 mg/liter, 24 hr
  % mortality: 10.0%
Blatella germanica; 625 mg/liter, 48 hr
  % mortality: 10.0%
Blatella germanica; 625 mg/liter, 6 days
  % mortality: 15.0%
Blatella germanica; 1250 mg/liter, 24 hr
  % mortality: 90.0%
Blatella germanica; 1250 mg/liter, 48 hr
  % mortality: 95.0%
Blatella germanica; 1250 mg/liter, 6 days
  % mortality: 100%
Blatella germanica; 2500 mg/liter, 24 hr
  % mortality: 95.0%
Blatella germanica; 2500 mg/liter, 48 hr
  % mortality: 95.0%
Blatella germanica; 2500 mg/liter, 6 days
  % mortality: 100%
Blatella germanica
  insecticidal activity: good insecticidal activity
Sitophilus granarius; 144 h, 6 days
  mortality at 0.1 mg: 10%
  mortality at 1 mg: 100%
Sitophilus granarius; 24 hr
  mortality at 0.1 mg: 6%
  mortality at 1 mg: 100%
Sitophilus granarius; 48 hr
  mortality at 0.1 mg: 6%
  mortality at 1 mg: 100%
Tetranychus urticae; 48 hours
  mortality at 10 µg/mL: 100%
Tetranychus urticae; 50 mg/liter, 48 hours
  mortality at 50 µg/mL: 100%
Drosophila melanogaster; 1 hour
  Emax at 50 µg/mL: 0%
  Emax at 500 µg/mL: 0%
  Emax at 5000 µg/mL: 0%
Drosophila melanogaster; 2 hours
  Emax at 50 µg/mL: 0%
  Emax at 500 µg/mL: 0%
  Emax at 5000 µg/mL: 0%
Drosophila melanogaster; 4 hours
  Emax at 50 µg/mL: 0%
  Emax at 500 µg/mL: 0%
  Emax at 5000 µg/mL: 5.9%
Drosophila melanogaster; 24 hours
  Emax at 50 µg/mL: 32.8%
  Emax at 500 µg/mL: 100%
  Emax at 5000 µg/mL: 100%
Drosophila melanogaster; in vivo
  contact and vapor insecticidal activity: good contact and vapor insecticidal activity
[3]; 24 hr
  mortality at 0.001 mg: 40%
  mortality at 0.01 mg: 100%
[3]; 48 hr
  mortality at 0.001 mg: 50%
  mortality at 0.01 mg: 100%
[3]; in vivo
  insecticidal activity: good insecticidal activity
[4]; 24 hr
  mortality at 0.001 mg: 100%
  mortality at 0.01 mg: 100%
[4]; 48 hr
  mortality at 0.001 mg: 100%
  mortality at 0.01 mg: 100%
[4]; in vivo
  insecticidal activity: good insecticidal activity
[5]
  insecticidal activity: good insecticidal activity
[5]; 24 h
  mortality at 0.01 mg: 100%
[5]; 48 h
  mortality at 0.01 mg: 100%
Tetranychus urticae eggs; 10 mg/liter
  mortality at 10 µg/mL: 93.3%
Tetranychus urticae eggs; 50 mg/liter
  mortality at 50 µg/mL: 100%
Ceratitis capitata; 2 h
  mortality at 100 µg/mL: 61.2%
Ceratitis capitata; 24 h
  mortality at 100 µg/mL: 38.8%
Ceratitis capitata; 2 hours
  mortality at 1000 µg/mL: 91.7%
Ceratitis capitata; 24 hours
  mortality at 1000 µg/mL: 97.9%
Ceratitis capitata; in vivo
  insecticidal activity: good insecticidal activity
[6]; 10 mg/liter
  mortality at 10 µg/mL: 100%
[6]; 50 mg/liter
  mortality at 50 µg/mL: 100%
